From patent US20060252814A1, “Formulation comprising a betablocker and optionally a cholestrol-lowering agent” (AstraZeneca AB, priority 2000, published 2006)

Legend:
[1] = system: common carotid artery intima-media thickness in asymptomatic subjects with a carotid plaque; test: Carotid ultrasound, change in mean intima-media thickness (IMTmean) in the common carotid artery, 36 months double-blind placebo-controlled trial; type: in vivo, human; conditions: for Common carotid IMTmean, Δ 18 months to baseline (± SD) / Common carotid IMTmean, Δ 36 months to baseline (± SD): mean change; for Common carotid IMTmean, 18 months (± SD): mean value at 18 months follow-up, metoprolol 25 mg o.d. / fluvastatin 40 mg o.d., factorial groups; for Common carotid IMTmean, 36 months (± SD): mean value at 36 months follow-up; for Common carotid IMTmean, Δ between groups at 36 months (95% CI): versus placebo
From the text: (§1) The study population consisted of asymptomatic men and women, aged 49 to 70 years, with a plaque in the right carotid artery. A random 50% of those who entered the study were invited to take part in a study on the epidemiology of carotid artery disease. 1548 subjects came to the enrolment examination (visit one) including medical history, physical examination, laboratory measurements and a two-dimensional B-mode ultrasound of the right carotid artery. Subjects with a qualifying lesion in the right carotid artery, and who had no contraindications to the study protocol were invited to take part. In all, 793 subjects were eligible for randomization. All participants provided written informed consent Major exclusion criteria were history of myocardial infarction, angina pectoris or stroke within the preceding three months, history of surgical intervention in the right carotid artery, regular use of beta-blockers or stating, blood pressure above 160 systolic or 95 mm Hg diastolic, hypercholesterolemia (>8.0 mmol/L), hyperglycemia requiring or suspected to require insulin treatment, and conditions which in the opinion of the investigator rendered the subject unsuitable for the trial. […] Death and incidence of major cardiovascular endpoints were monitored. […] Throughout the trial an Acuson 128 […] (Acuson, Mountain View, Calif.) with a 7 MHz transducer was used. The examination procedure and image analysis, as described elsewhere ([…] et al., Clin Physiol, 11:565-577, 1991; […] et al., Stroke, 28:2195-2200, 1997) was performed by specially trained sonographers certified upon completion of an extensive educational program (Berglund, et al., J Intern Med, 236:581-586, 1994). In brief, the right carotid bifurcation was scanned within a pre-defined window comprising three centimeters of the distal common carotid artery, the bifurcation and one centimeter of the internal and external carotid arteries, respectively, for the presence of plaques, defined as focal intima-media thickenings above 1.2 mm. Thickness of the intima-media complex was measured in the far wall according to the leading edge principle, using a specially designed computer-assisted image analyzing system based on automated detection of the echo structures, but with the option to make manual corrections by the operator. Each image was analyzed without knowledge of the subjects' randomization group. From previous experience (Furberg et al., Circulation, 90:1679-1687, 1994) it was anticipated that the annual carotid artery […] progression rate in the placebo group would be approximately 15 μm per year with a standard deviation of 30 μm. […] The primary effect variables, change in […], and […] Bulb, was analyzed in a linear model with change in IMT as dependent variable and with treatment as a factor. Baseline IMTs and time between measurements were included in the model as covariates.

[2] = system: carotid bulb intima-media thickness in asymptomatic subjects with a carotid plaque; test: Carotid ultrasound, change in maximum intima-media thickness (IMTmax) in the carotid bulb (bifurcation), 36 months double-blind placebo-controlled trial; type: in vivo, human; conditions: for Bifurcation carotid IMTmean, Δ 18 months to baseline (± SD) / Bifurcation carotid IMTmean, Δ 36 months to baseline (± SD): mean change; for Bifurcation carotid IMTmean, 18 months (± SD): mean value at 18 months follow-up; for Bifurcation carotid IMTmean, 36 months (± SD): mean value at 36 months follow-up; for Bifurcation carotid IMTmean, Δ between groups at 36 months (95% CI): versus placebo
From the text: as §1

[3] = system: cardiovascular (CVD) events in asymptomatic subjects with a carotid plaque; test: Incidence of cardiovascular events during follow-up; type: in vivo, human; conditions: metoprolol versus 13 cases placebo, p=0.055; fluvastatin versus 11 cases placebo, p=0.350
From the text: Death and incidence of major cardiovascular endpoints were monitored.

[4] = human, in vivo, 36 months
Experimental: A large scale clinical trial was designed to investigate the effect of low dose betablocker metoprolol on the progression of carotid IMT versus placebo and clinical outcome measures during 36 months double-blind treatment in asymptomatic subjects with a carotid plaque. The study was a randomized, double blind, parallel group, placebo-controlled, single-center study.
The randomization procedure was performed by using a computer generated randomization scheme. Participants were, according to a factorial design, randomly assigned to one of four drug combination groups: placebo/placebo, metoprolol (25 mg o.d)/placebo, fluvastatin (40 mg o.d.)/placebo or metoprolol (25 mg o.d.)/fluvastatin (40 mg o.d.). The placebo was manufactured to exactly resemble the metoprolol CR/XL tablets (AstraZeneca AB, Mölndal, Sweden), and fluvastatin (Novartis Ltd, Basel, Switzerland) capsules, respectively.
Safety and tolerability pattern during treatment with fluvastatin or metoprolol, was evaluated by comparing adverse events and laboratory findings to placebo. Death and incidence of major cardiovascular endpoints were monitored.
Every participant was seen four times during the first year (after one, three, six and twelve months) and every 6 months thereafter. Weight was obtained every six months and a fasting lipid profile (total cholesterol, LDL-lipoprotein, HDL-lipoprotein and triglycerides) was determined every year. Liver transaminases (AST, ALT) and creatine kinase (CK) were obtained at every visit during the first year and then every year thereafter. AST or ALT values ≧3 times, and CK values ≧10 times the upper limit of normal was considered elevated during the study. […] Subjects with high serum cholesterol or triglycerides were advised to a low-fat diet and if evidence of persistent high cholesterol values such subjects were referred to an independent specialist of lipid disorders without knowledge of the subjects randomization assignment. […]

[5] = Metabolic and physiological effects of treatment in the clinical trial; type: in vivo, human
Experimental: A large scale clinical trial was designed to investigate the effect of low dose betablocker metoprolol on the progression of carotid IMT versus placebo and clinical outcome measures during 36 months double-blind treatment in asymptomatic subjects with a carotid plaque. The study was a randomized, double blind, parallel group, placebo-controlled, single-center study. The randomization procedure was performed by using a computer generated randomization scheme. Participants were, according to a factorial design, randomly assigned to one of four drug combination groups: placebo/placebo, metoprolol (25 mg o.d)/placebo, fluvastatin (40 mg o.d.)/placebo or metoprolol (25 mg o.d.)/fluvastatin (40 mg o.d.). The placebo was manufactured to exactly resemble the metoprolol CR/XL tablets (AstraZeneca AB, […] , Sweden), and fluvastatin (Novartis Ltd, Basel, Switzerland) capsules, respectively. Every participant was seen four times during the first year (after one, three, six and twelve months) and every 6 months thereafter. Weight was obtained every six months and a fasting lipid profile (total cholesterol, LDL-lipoprotein, HDL-lipoprotein and triglycerides) was determined every year. Liver transaminases (AST, ALT) and creatine kinase (CK) were obtained at every visit during the first year and then every year thereafter. AST or ALT values ≧3 times, and CK values ≧10 times the upper limit of normal was considered elevated during the study. Carotid ultrasound investigation was performed at baseline and after 18 and 36 months treatment.

[6] = in comparison to the placebo group

Row | SMILES | Common carotid IMTmean, Δ 18 months to baseline (± SD) [1] [μm] | Common carotid IMTmean, Δ 36 months to baseline (± SD) [1] [μm] | Common carotid IMTmean, 18 months (± SD) [1] [μm] | Common carotid IMTmean, 36 months (± SD) [1] [μm] | Common carotid IMTmean, Δ between groups at 36 months (95% CI) [1] | Bifurcation carotid IMTmean, Δ 18 months to baseline (± SD) [2] [μm] | Bifurcation carotid IMTmean, Δ 36 months to baseline (± SD) [2] [μm] | Bifurcation carotid IMTmean, 18 months (± SD) [2] [μm] | Bifurcation carotid IMTmean, 36 months (± SD) [2] [μm] | Bifurcation carotid IMTmean, Δ between groups at 36 months (95% CI) [2] | CVD events during follow-up [3] [cases] | Permanent withdrawal from randomized treatment [4] [%] | other results
1 | CC(C)n1c(/C=C/C(O)CC(O)CC(=O)O)c(-c2ccc(F)cc2)c2ccccc21 (centres unmarked) [Fluvastatin, fluvastatin] | −5 ± 11 | 11 ± 11 | 890 ± 196 | 905 ± 205 | −25 (−44 to −7) μm | 63 ± 334 | 170 ± 374 | 1965 ± 554 | 2095 ± 652 | −41 (−102 to 19) μm | 7 | 21 | IMTmean CCA progression, mean difference of yearly change between groups ([1]; compared with placebo after 36 months of treatment, 95% CI −15 to −3, p=0.002): −9 μm; frequency of transiently high liver enzymes ([4]; female): 10.2%
2 | COCCc1ccc(OCC(O)CNC(C)C)cc1 (centres unmarked) [Metoprolol, metoprolol] | −5 ± 12 | 22 ± 13 | 908 ± 205 | 934 ± 220 | −2 (−20 to 17) μm | 23 ± 325 | 154 ± 411 | 1937 ± 572 | 2003 ± 624 | −73 (−133 to −13) μm | 5 | 15 | reduced the rate of progression of IMTmean CCA compared with placebo ([1]; after 36 months of treatment, result in words): not; carotid IMTmaxBulb progression, mean difference of yearly change between groups ([2]; after 18 months of treatment, 95% CI −94 to −23, p=0.004): −58 μm; carotid IMTmaxBulb progression, mean difference of yearly change between groups ([2]; after 36 months, subgroup with serum cholesterol at baseline, 95% CI −87 to −19, p=0.001): −53 μm; carotid IMTmaxBulb progression, mean difference of yearly change between groups ([2]; compared with placebo after 36 months of treatment, 95% CI −44 to −3, p=0.014): −23 μm; effect on other metabolic variables ([5]; compared to the placebo group): no effect; change of blood pressure [5, 6]: not significantly changed; change of lumen diameter [5, 6]: not significantly changed; decrease of mean heart rate in comparison to the placebo group ([5]; metoprolol 25 mg o.d.): 2.5 beats per min; increase of serum triglycerides compared to the placebo group ([5]; metoprolol 25 mg o.d.): 0.14 mmol/L
